{
  "source": "patent US9233932B2",
  "about": "“Oligomer-nitroimidazole anti-infective conjugates” (NEKTAR THERAPEUTICS, priority 2007, dated 2016)",
  "key": {"[1]": {"test_system": "Giardia intestinalis Portland-1 (ATCC 30888)", "assay": "Minimum inhibitory concentration determination, micro-broth dilution, trophozoite motility", "assay_type": "cell-based", "conditions": "for Fold Difference (Parent vs. Derivative): MIC of derivative relative to metronidazole; for activity relative to parent metronidazole: qualitative statement on MIC results", "experimental": "Briefly, minimum inhibitory concentration was evaluated in an anti-protozoal assay against a protozoan strain, Giardia intestinalis Portland-1 (ATCC 30888), isolated from human. The organism, also referred to as Giardia lamblia, causes infection in the small intestine.\nThe susceptibility of G. intestinalis to the test compounds was determined using the micro-broth dilution analysis. The protozoan strain was cultured according to the supplier's recommendations. Thirteen milliliters of growth media (TYI-S-33 supplemented with bile) was inoculated with 100 μL of G. intestinalis growing culture and incubated at 37° C. for 72 hours. Following incubation, each test compound was diluted (in growth medium) to two times the high test concentration then further diluted in 1:2 increments to yield 11 test concentrations. Each test concentration (100 μL) was added in triplicate to designated wells on the plate. Trophozoites were added to each well of a 96-well round bottom plate in a volume of 100 μL at a density of 40,000 per well. The plates were cultured for 24 hours in an anaerobic chamber to assure the presence of low oxygen level.\nFollowing the treatment incubation, cultures were visually evaluated for trophozoite motility. At each concentration, data was recorded as positive or negative for motility.\nEach test compound was dissolved in DMSO to a final concentration of 80 mM. […] The starting high test concentration was to be as high as possible."}, "[2]": {"test_system": "Giardia intestinalis", "assay": "In vitro antigiardial activity assay", "assay_type": "cell-based", "experimental": "Metronidazole (from two different sources) and samples prepared in accordance with Examples 1 and 2 were tested using conventional antimicrobial assay techniques for in vitro antigiardial activity at six concentrations with three-fold dilutions (10, 3.3, 1.1, 0.37, 0.122, 0.04 μg/mL). IC50 values (inhibition concentration) were determined."}, "[3]": {"conditions": "average IC50 converted with MW, read-out: μM IC50"}, "[4]": {"conditions": "replicate 1, six concentrations, three-fold dilutions 10-0.04 μg/mL"}, "[5]": {"conditions": "replicate 2, six concentrations, three-fold dilutions 10-0.04 μg/mL"}, "[6]": {"conditions": "replicate 3, six concentrations, three-fold dilutions 10-0.04 μg/mL"}, "[7]": {"conditions": "lowest concentration completely inhibiting trophozoite motility, 24 hours, anaerobic chamber"}},
  "note": "Read-outs that look alike come from different tables or passages of the source.",
  "data": [
    {"compound": "Cc1ncc([N+](=O)[O-])n1CCO", "note": "[Metronidazole, reference compound]", "values": [
      {"measurement": "MIC", "setting": "[1]; Giardia duodenalis, ATCC30888, Giardia intestinalis, read-out: MIC", "result": 3.9, "unit": "µg/mL"},
      {"measurement": "MIC", "setting": "[1]; Giardia duodenalis, ATCC30888, lowest concentration completely inhibiting trophozoite motility, 24 hours, anaerobic chamber, read-out: MIC", "result": 3.9, "unit": "µg/mL"},
      {"measurement": "Fold Difference (Parent vs. Derivative)", "setting": "[1]", "result": 1},
      {"measurement": "IC50", "setting": "[2]; Giardia duodenalis, average IC50 converted with MW, read-out: μM IC50", "result": 3.41, "unit": "µM"},
      {"measurement": "IC50", "setting": "[2]; Giardia duodenalis, average of IC50 1-3, read-out: Average IC50", "result": 0.58, "unit": "µg/mL"},
      {"measurement": "IC50", "setting": "[2]; Giardia duodenalis, replicate 1, six concentrations, three-fold dilutions 10-0.04 μg/mL, read-out: IC50 1", "result": 0.75, "unit": "µg/mL"},
      {"measurement": "IC50", "setting": "[2]; Giardia duodenalis, replicate 2, six concentrations, three-fold dilutions 10-0.04 μg/mL, read-out: IC50 2", "result": 0.3, "unit": "µg/mL"},
      {"measurement": "IC50", "setting": "[2]; Giardia duodenalis, replicate 3, six concentrations, three-fold dilutions 10-0.04 μg/mL, read-out: IC50 3", "result": 0.7, "unit": "µg/mL"},
      {"measurement": "IC50", "setting": "[2]; [3]", "result": 3.96, "unit": "µM"},
      {"measurement": "Average IC50", "setting": "[2]; average of IC50 1-3", "result": 0.68, "unit": "µg/mL"}
    ]},
    {"compound": "COCCOCCOCCOCCOCCOCCOCCOC(=O)OCCn1c([N+](=O)[O-])cnc1C", "note": "[PEG7 Metronidazole carbonate, mPEG7 metronidazole carbonate]", "values": [
      {"measurement": "IC50", "setting": "[2]; [3]", "result": 7.51, "unit": "µM"},
      {"measurement": "Average IC50", "setting": "[2]; average of IC50 1-3", "result": 4.03, "unit": "µg/mL"},
      {"measurement": "IC50 1", "setting": "[2]; [4]", "result": 4.5, "unit": "µg/mL"},
      {"measurement": "IC50 2", "setting": "[2]; [5]", "result": 4.2, "unit": "µg/mL"},
      {"measurement": "IC50 3", "setting": "[2]; [6]", "result": 3.4, "unit": "µg/mL"}
    ]},
    {"compound": "COCCOCCOCCOC(=O)OCCn1c([N+](=O)[O-])cnc1C", "note": "[mPEG3 metronidazole carbonate]", "values": [
      {"measurement": "MIC", "setting": "[1]; Giardia intestinalis", "result": 7.8, "unit": "µg/mL"},
      {"measurement": "Fold Difference (Parent vs. Derivative)", "setting": "[1]", "result": 2},
      {"measurement": "MIC", "setting": "[1]; [7]", "result": 7.8, "unit": "µg/mL"},
      {"measurement": "IC50", "setting": "[2]; [3]", "result": 2.88, "unit": "µM"},
      {"measurement": "Average IC50", "setting": "[2]; average of IC50 1-3", "result": 1.04, "unit": "µg/mL"},
      {"measurement": "IC50 1", "setting": "[2]; [4]", "result": 0.82, "unit": "µg/mL"},
      {"measurement": "IC50 2", "setting": "[2]; [5]", "result": 1.1, "unit": "µg/mL"},
      {"measurement": "IC50 3", "setting": "[2]; [6]", "result": 1.2, "unit": "µg/mL"}
    ]},
    {"compound": "COCCOCCOCCOCCOCCOCCOCCOCCOCCOCCOCCOC(=O)OCCn1c([N+](=O)[O-])cnc1C", "note": "[mPEG11 metronidazole carbonate]", "values": [
      {"measurement": "Fold Difference (Parent vs. Derivative)", "setting": "[1]", "result": 256},
      {"measurement": "MIC", "setting": "[1]; [7]", "result": 1000, "unit": "µg/mL"},
      {"measurement": "activity relative to parent metronidazole", "setting": "[1]", "result": "reductions of activity"}
    ]},
    {"compound": "mPEG1k metronidazole carbonate", "values": [
      {"measurement": "Fold Difference (Parent vs. Derivative)", "setting": "[1]", "result": ">256"},
      {"measurement": "MIC", "setting": "[1]; [7]", "result": ">1000", "unit": "µg/mL"},
      {"measurement": "activity relative to parent metronidazole", "setting": "[1]", "result": "reductions of activity"}
    ]},
    {"compound": "mPEG21, metronidazole carbonate [mPEG21 metronidazole carbonate]", "values": [
      {"measurement": "Fold Difference (Parent vs. Derivative)", "setting": "[1]", "result": 256},
      {"measurement": "MIC", "setting": "[1]; [7]", "result": 1000, "unit": "µg/mL"},
      {"measurement": "activity relative to parent metronidazole", "setting": "[1]", "result": "reductions of activity"}
    ]}
  ]
}
